Laboratory results as given in patent US20230103631A1, “PEPTIDES AS SELECTIVE GIP RECEPTOR AGONISTS” (Sanofi, priority 2020, published 2023).
*1 amine or outer side, *2 acyl side, *3 side chain or, on linkers, in order; H or OH if unused. Where a SMILES comes first, the peptide text is derived from it. Side-chain parts run from the residue outwards. [ ]: non-standard residue; d: D form. The star is where a group is joined. C20 diacid = O=C(O)CCCCCCCCCCCCCCCCCCC(=O)*; C18 diacid = O=C(O)CCCCCCCCCCCCCCCCC(=O)*; γGlu = O=C(O)[C@H](CCC(=O)[*:2])N[*:1]; AEEA = NCCOCCOCC(=O)O; Aib = CC(C)(N)C(=O)O

Key:
Format in all cases: physicochemical
[1] = Chemical stability assessment (relative purity loss by UHPLC-UV); details: Chemical stability buffer system A: 20 mM phosphate buffer pH 7.4
Method: Purity of a peptide batch was determined through UHPLC/MS prior to chemical stability measurement. The target concentration was […] pure compound. Solutions from solid samples were prepared in the following buffer systems with a concentration of ˜300 μM compound based on the previously determined % purity:
Chemical stability buffer system A) 20 mM phosphate buffer pH 7.4,
Chemical stability buffer system B) 8 mM phosphate buffer pH 7.4, 14 mg/ml propylene glycol, 5.5 mg/ml phenol
Chemical stability buffer system C) 100 mM phosphate buffer pH 7.4, 2.7 mg/ml m-cresol
Prepared solutions were filtered through […] pore size and filled into sterilized glass containers under laminar flow conditions.
Glass containers were stored for 28 days at 5 and 40° C. After this time, the samples were centrifuged for 15 min at 2500 RCF. Then 1.5 μl of the undiluted supernatant were analysed with UHPLC-UV.
The chemical stability was rated through the relative loss of purity calculated by the equation:
[(purity after 28 days at 5° C.)−(purity after 28 days at 40° C.)]/(purity after 28 days at 5° C.)]*100%
The purity is calculated as
[(peak area peptide)/(total peak area)]*100%
The analytical methods used were Analytical UHPLC Method B or C.
Peptide samples were prepared in Chemical stability buffer system A or B and stability was assessed as described in Methods.

physchem = details: for Soluble amount: 24 h, pH 7.4; for solubility at 24 h: pH 7.4, Soluble amount
Summary of the method: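 Peptide at 10 mg/ml (purity-corrected) in 100 mM phosphate pH 7.4, alone or with 2.7 mg/ml m-cresol; 1 h gentle agitation, then 24 h at 5 °C. Supernatant after 15 min at 2500 RCF quantified by UHPLC-UV against reference peptide, adjusted for extinction coefficients.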

[2] = Dynamic light scattering (DLS) for the assessment of physical stability; details: DLS buffer system A
Source text: A monochromatic and coherent light beam (laser) is used to illuminate the liquid sample. Dynamic Light Scattering (DLS) measures light scattered from particles (1 nm≤radius≤1 μm) that undergo Brownian motion. This motion is induced by collisions between the particles and solvent molecules, that themselves are moving due to their thermal energy. The diffusional motion of the particles results in temporal fluctuations of the scattered light (R. Pecora, Dynamic Light Scattering: Applications of Photon Correlation Spectroscopy, Plenum Press, 1985).
The scattered light intensity fluctuations are recorded and transformed into an autocorrelation function. By fitting the autocorrelation curve to an exponential function, the diffusion coefficient D of the particles in solution can be derived. The diffusion coefficient is then used to calculate the hydrodynamic radius Rh (or apparent Stokes radius) through the Stokes-Einstein equation assuming spherical particles. This calculation is defined in ISO 13321 and ISO 22412 (International Standard ISO13321 Methods for Determination of Particle Size Distribution Part 8: Photon Correlation Spectroscopy, International Organisation for Standardisation (ISO) 1996; International Standard ISO22412 Particle Size Analysis—Dynamic Light Scattering, International Organisation for Standardisation, 2008).
In case of polydisperse samples, the autocorrelation function is the sum of the exponential decays corresponding to each of the species. The temporal fluctuations of the scattered light can then be used to determine the size distribution profile of the particle fraction or family. The first order result is an intensity distribution of scattered light as a function of the particle size. The intensity distribution is naturally weighted according to the scattering intensity of each particle fraction or family. For biological materials or polymers, the particle scattering intensity is proportional to the square of the molecular weight. Thus, small amount of aggregates/agglomerates or presence or a larger particle species can dominate the intensity distribution. However, this distribution can be used as a sensitive detector for the presence of large material in the sample.
The DLS technique produces distributions with inherent peak broadening. The polydispersity index % Pd is a measure of the width of the particle size distribution and is calculated by standard methods described in ISO13321 and ISO22412 [International Standard ISO13321 Methods for Determination of Particle Size Distribution Part 8: Photon Correlation Spectroscopy, International Organisation for Standardisation (ISO) 1996; International Standard ISO22412 Particle Size Analysis—Dynamic Light Scattering, International Organisation for Standardisation (ISO) 2008].
Solutions from solid samples were prepared in buffer systems (see below) with a target concentration of 300 μM compound based on the previously determined % purity.
DLS buffer system A) 20 mM phosphate buffer pH 7.4
DLS buffer system B) 8 mM phosphate buffer pH 7.4, 14 mg/ml propylene glycol, 5.5 mg/ml phenol
DLS buffer system C) 100 mM phosphate buffer pH 7.4, 2.7 mg/ml m-cresol Solutions were filtered through 0.22 μm pore size and filled into sterilized glass containers under laminar flow conditions. For every peptide solution, the apparent hydrodynamic radius (Rh), the corresponding Scattering Intensity (I), and the Mass Contribution (M) were determined as an average over 3-6 replicates from the intensity distribution of the scattered light averaging only high-quality measurements. Relative standard deviations (RSD) for these parameters were calculated from the same number of replicates. […]

Row | Structure (SMILES) | Relative purity loss over 28 days at 40° C. [1] [%] | Soluble amount (physchem) [mg/mL] | solubility at 24 h (physchem) [µg/mL] | I and SD (Scattering Intensity) ([2]; 0 weeks) [%] | M and SD (Mass Contribution) ([2]; 0 weeks) [%] | apparent Rh and SD ([2]; 0 weeks) [nm] | I and SD (Scattering Intensity) ([2]; 4 weeks storage at 40° C.) [%] | M and SD (Mass Contribution) ([2]; 4 weeks storage at 40° C.) [%] | apparent Rh and SD ([2]; 4 weeks storage at 40° C.) [nm]
1 | CC[C@H](C)[C@H](NC(=O)[C@H](Cc1ccccc1)NC(=O)[C@H](CCC(=O)O)NC(=O)[C@H](CCC(=O)O)NC(=O)[C@H](CCC(N)=O)NC(=O)[C@H](Cc1c[nH]cn1)NC(=O)[C@@H](NC(=O)[C@H](CCCNC(=N)N)NC(=O)[C@H](CC(=O)O)NC(=O)[C@H](CCCCNC(=O)COCCOCCNC(=O)COCCOCCNC(=O)CC[C@H](NC(=O)CCCCCCCCCCCCCCCCCCC(=O)O)C(=O)O)NC(=O)C(C)(C)NC(=O)[C@@H](NC(=O)[C@H](CO)NC(=O)[C@H](CC(C)C)NC(=O)[C@H](CC(=O)O)NC(=O)[C@H](CO)NC(=O)[C@@H](NC(=O)[C@H](Cc1ccccc1)NC(=O)[C@@H](NC(=O)CNC(=O)[C@H](CCC(=O)O)NC(=O)C(C)(C)NC(=O)[C@@H](N)Cc1ccc(O)cc1)[C@@H](C)O)[C@@H](C)CC)[C@@H](C)CC)[C@@H](C)CC)C(=O)N[C@@H](CCC(=O)O)C(=O)N[C@@H](Cc1c[nH]c2ccccc12)C(=O)N[C@@H](CC(C)C)C(=O)N[C@@H](CC(C)C)C(=O)N[C@@H](C)C(=O)N[C@@H](CCC(N)=O)C(=O)NCC(=O)N1CCC[C@H]1C(=O)N[C@@H](CO)C(=O)N[C@@H](CO)C(=O)NCC(=O)N[C@@H](C)C(=O)N1CCC[C@H]1C(=O)N1CCC[C@H]1C(=O)N1CCC[C@H]1C(=O)N[C@@H](CO)C(N)=O [SEQ ID NO: 10, H2N-Y-Aib-E-G-T-F-I-S-D-I-S-I-Aib-K[{AEEA}2-gGlu-C20OH]-DRIHQEEFIEWILAQGPSSGAPPPS-NH2] (H-Y[Aib]EGTFISDLSI[Aib]K([AEEA-AEEA-γGlu-C20 diacid])DRIHQEEFIEWLLAQGPSSGAPPPS-NH2) | 3.3 | >8.1 | > 8000 | 60 ± 3 | 100 ± 0 | 1.97 ± 0.03 | 75 ± 3 | 100 ± 0 | 1.91 ± 0.04
2 | CC[C@H](C)[C@H](NC(=O)[C@H](Cc1ccccc1)NC(=O)[C@H](CCC(=O)O)NC(=O)[C@H](CCC(=O)O)NC(=O)[C@H](CCC(N)=O)NC(=O)[C@H](Cc1c[nH]cn1)NC(=O)[C@@H](NC(=O)[C@H](CCCNC(=N)N)NC(=O)[C@H](CC(=O)O)NC(=O)[C@H](CCCCNC(=O)COCCOCCNC(=O)COCCOCCNC(=O)CC[C@H](NC(=O)CCCCCCCCCCCCCCCCC(=O)O)C(=O)O)NC(=O)C(C)(C)NC(=O)[C@@H](NC(=O)[C@H](CO)NC(=O)[C@H](CC(C)C)NC(=O)[C@H](CC(=O)O)NC(=O)[C@H](CO)NC(=O)[C@@H](NC(=O)[C@H](Cc1ccccc1)NC(=O)[C@@H](NC(=O)CNC(=O)[C@H](CCC(=O)O)NC(=O)C(C)(C)NC(=O)[C@@H](N)Cc1ccc(O)cc1)[C@@H](C)O)[C@@H](C)CC)[C@@H](C)CC)[C@@H](C)CC)C(=O)N[C@@H](CCC(=O)O)C(=O)N[C@@H](Cc1c[nH]c2ccccc12)C(=O)N[C@@H](CC(C)C)C(=O)N[C@@H](CC(C)C)C(=O)N[C@@H](C)C(=O)N[C@@H](CCC(N)=O)C(=O)NCC(=O)N1CCC[C@H]1C(=O)N[C@@H](CO)C(=O)N[C@@H](CO)C(=O)NCC(=O)N[C@@H](C)C(=O)N1CCC[C@H]1C(=O)N1CCC[C@H]1C(=O)N1CCC[C@H]1C(=O)N[C@@H](CO)C(=O)O [SEQ ID NO: 11, H2N-Y-Aib-E-G-T-F-I-S-D-I-S-I-Aib-K[{AEEA}2-gGlu-C18OH]-DRIHQEEFIEWILAQGPSSGAPPPS-OH] (H-Y[Aib]EGTFISDLSI[Aib]K([AEEA-AEEA-γGlu-C18 diacid])DRIHQEEFIEWLLAQGPSSGAPPPS-OH) | 6.1 | >9.8 | > 9800 | 96 ± 1 | 100 ± 0 | 1.82 ± 0.04 | 85 ± 2 | 100 ± 0 | 1.83 ± 0.05
